Reference: paper PMC10766610, “DCAF1-based PROTACs with activity against clinically validated targets overcoming intrinsic- and acquired-degrader resistance” (Nature Communications, 2024)
Like-named read-outs stand apart in the source and are kept apart here.

Legend:
[1] = target: T1, BRD9 (Homo sapiens, UniProt Q9H8M2); experiment: Rescue of DBr-1 mediated BRD9 degradation by co-treatment, BRD9-HiBiT HEK293 cells; type: cell-based; design: host or cells: HEK293/BRD9-HiBiT knock-in; clone and BRD9-HiBiT/CAS9/FF clone; conditions: (13) 1 µM, OICR8268 10 µM, BI-9564 10 µM
T1 sequence (Q9H8M2 1-597): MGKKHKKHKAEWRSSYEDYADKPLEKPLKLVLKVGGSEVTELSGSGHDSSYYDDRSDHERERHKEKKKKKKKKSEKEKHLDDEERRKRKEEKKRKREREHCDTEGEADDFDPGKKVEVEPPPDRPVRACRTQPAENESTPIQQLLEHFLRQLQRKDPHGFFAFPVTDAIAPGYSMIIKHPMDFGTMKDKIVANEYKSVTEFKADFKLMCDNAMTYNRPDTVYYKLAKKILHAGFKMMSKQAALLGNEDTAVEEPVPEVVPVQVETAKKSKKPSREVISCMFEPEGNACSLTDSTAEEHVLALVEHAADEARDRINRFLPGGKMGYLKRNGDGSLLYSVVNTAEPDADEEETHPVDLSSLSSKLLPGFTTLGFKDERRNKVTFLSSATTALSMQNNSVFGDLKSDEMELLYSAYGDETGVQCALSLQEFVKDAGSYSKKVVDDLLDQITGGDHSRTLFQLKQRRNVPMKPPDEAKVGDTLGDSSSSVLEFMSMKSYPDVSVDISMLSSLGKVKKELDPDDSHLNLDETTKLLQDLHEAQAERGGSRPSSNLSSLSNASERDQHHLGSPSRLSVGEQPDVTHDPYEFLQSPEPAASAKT
Method: Supplementary figure 4. Competition experiments with DBr-1 and DBr-1-N […]
a) BRD9-HiBiT signal detection of samples pretreated with either DMSO, 10µM OICR-8268, 1µM […]
Data represents average ± standard deviation from n=3 replicates. DC50 values and […]
maximal observed degradation are shown below. […]
b) Cell titer Glow assay of BRD9 HiBiT cells. Cells pretreated with either DMSO, 10µM OICR-8268, […]
Data represents average ± standard deviation from n=3 replicates.
(§1) Source data are provided as a Source Data file

[2] = target: T1, BRD9; experiment: Immunoblot of BRD9 in HEK293 BRD9-HiBiT/FF/CAS9 cells; type: cell-based; design: host or cells: HEK293/BRD9-HiBiT knock-in; clone and BRD9-HiBiT/CAS9/FF clone; conditions: 1000 nM, 6 h
Method: (§2) Whole cell lysates for immunoblotting were prepared by pelleting cells at 4 °C (300 g) for 3 min. Cell pellets were then washed 1x with PBS and resuspended in RIPA lysis buffer (VWR, cat # 97063-270) supplemented with protease (Thermo Scientific, cat # A32955) and phosphatase (Thermo Scientific, cat # A32957) inhibitor tablets. Lysates were clarified at 16,000 × g for 15 min at 4 °C prior to quantification by Lowry assay (Bio-Rad cat # 5000113 and cat # 5000114). Whole-cell lysates were loaded into 4–20% Criterion TGX Precast 18 well gels (Bio-Rad, cat # 5671094) and separated by electrophoreses at 120 V for 1 h. The gels were transferred to a nitrocellulose membrane using the Trans-Blot Turbo (Bio-Rad) for 7 min and then blocked for 1 h at room temperature in Odyssey blocking buffer (LICOR Biosciences, cat # 927-50000). Membranes were probed with the appropriate primary antibodies (diluted 1:1000) overnight at 4 °C in 20% Odyssey blocking buffer in 1x TBST. Membranes were washed three times with 1x TBST (5 min per wash), and then incubated with IRDye goat anti-mouse (LICOR, cat # 926-32210) or goat anti-rabbit (LICOR, cat # 926-32211) secondary antibody diluted 1:10,000 in 20% Odyssey blocking buffer for 1 h at room temperature. After three 5-min washes with 1x TBST, the immunoblots were visualized using the ODYSSEY Infrared Imaging System (LICOR). Alternatively, SDS-PAGE resolved proteins were transferred to a PVDF membrane using a wet blotting system (Invitrogen). Membranes were blocked in 5% Milk-PBS-Tween 20 for 1 h and incubated with primary antibody over night at 4 °C. Secondary antibodies (secondary antibody: anti-rabbit, goat pAb to Rb-IgG (Abcam, #7090); secondary antibody: anti-mouse, sheep IgG HRP-linked (GE healthcare, #NA931V)) were incubated for 1 h at room temperature (RT) before blots were developed on film using the detection kit SuperSignal West Femto Maximum Sensitivity Substrate (Thermo Fisher, #34096).

[3] = target: T2, BTK (Homo sapiens, UniProt Q06187); experiment: Immunoblot of BTK in TMD8 WT and CRBN (CBt) resistant cells; type: cell-based; design: performed with full-length BTK and endogenous DCAF1; expressed in transfected cells; host or cells: TMD8 cells, lentiviral, blasticidin-selected (TMD8 BTK-GFP/mCh); conditions: 24 h; 0.1 µM CBt, 1 µM DBt-10
Method: as §2, with “Alternatively, SDS-PAGE resolved proteins were transferred to a PVDF membrane using a wet blotting system (Invitrogen). Membranes were blocked in 5% Milk-PBS-Tween 20 for 1 h and incubated with primary antibody over night at 4 °C. Secondary antibodies (secondary antibody: anti-rabbit, goat pAb to Rb-IgG (Abcam, #7090); secondary antibody: anti-mouse, sheep IgG HRP-linked (GE healthcare, #NA931V)) were incubated for 1 h at room temperature (RT) before blots were developed on film using the detection kit SuperSignal West Femto Maximum Sensitivity Substrate (Thermo Fisher, #34096).” left out

[4] = target: T3, BRD7 (Homo sapiens, UniProt Q9NPI1); experiment: BRD7-HiBiT protein abundance luminescence assay in HEK293 cells
T3 sequence (Q9NPI1 1-651): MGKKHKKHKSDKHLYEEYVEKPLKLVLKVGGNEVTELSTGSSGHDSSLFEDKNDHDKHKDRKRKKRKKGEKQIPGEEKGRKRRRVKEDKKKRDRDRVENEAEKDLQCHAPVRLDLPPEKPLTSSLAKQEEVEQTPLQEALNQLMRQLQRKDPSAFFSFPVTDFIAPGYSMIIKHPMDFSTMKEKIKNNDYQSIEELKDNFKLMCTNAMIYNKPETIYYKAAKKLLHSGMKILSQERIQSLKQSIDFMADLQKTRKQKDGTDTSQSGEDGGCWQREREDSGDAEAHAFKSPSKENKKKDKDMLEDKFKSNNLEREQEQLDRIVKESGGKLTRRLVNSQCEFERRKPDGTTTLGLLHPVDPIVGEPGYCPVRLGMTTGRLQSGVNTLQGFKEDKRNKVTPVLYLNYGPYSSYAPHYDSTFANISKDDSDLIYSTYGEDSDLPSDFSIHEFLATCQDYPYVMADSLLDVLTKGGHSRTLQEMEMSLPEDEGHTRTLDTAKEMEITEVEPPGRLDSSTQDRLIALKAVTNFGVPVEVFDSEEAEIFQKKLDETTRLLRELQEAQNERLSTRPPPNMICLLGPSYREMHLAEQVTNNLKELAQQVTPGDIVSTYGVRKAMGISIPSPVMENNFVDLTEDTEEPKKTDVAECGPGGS
From the text: HEK293/BRD9-HiBiT pools (PROMEGA # CS3023120) and HEK293/BRD7-HiBiT pools (PROMEGA # CS3023124) were purchased from Promega. We performed clonal selection for HEK293/BRD9-HiBiT cell line using single-cell sorting and screening for HiBiT expression using Nano-Glo HiBiT Lytic Detection System (Promega # N3030). The HEK293/BRD9-HiBiT clone and HEK293/BRD7-HiBiT pool to perform standard HiBiT assays.

[5] = target: T1, BRD9; experiment: Capillary western of BRD9 in 768-O cells; type: cell-based; conditions: 768-O cells lacking VHL expression
Method: Protein peaks were analyzed using Compass for Simple Western version 5.0.1 (ProteinSimple), area under the curve for both α-tubulin ([…]) and BRD9 (90 kDa) per capillary was extracted and BRD9 area was normalized to α-tubulin area on a per-capillary basis before each sample was normalized to the DMSO for each run of three triplicates.

[6] = system: TMD8 WT and TMD8 CRBN resist. cells; experiment: CellTiter-Glo viability, TMD8 WT vs CRBN resist. cells; type: cell-based, human; conditions: CellTiter-Glo proliferation
Method: TMD8 cells were grown in the presence of a CRBN-BTK PROTAC CBt using a gradual dose increase. Start treatment was 0.1 nM for 6 weeks, followed by 3 weeks at 0.4 nM and another 4 weeks at 10 nM to finally obtain CBt resistant TMD8 cells (TMD8 CRBN resist.).
d) Viability measured by cell titer-Glo for DBt-10 (green) vs (13) (purple) in WT (solid) vs CRBN resist.
(dotted) TMD8 cells. Data represents average ± standard deviation from n=3 replicates.
e) Repeat of the viability measured by cell titer-Glo for DBt-10 (green) vs (13) (purple) in WT (solid) vs
CRBN resist. (dotted) TMD8 cells with adjusted dose response range. Data represents average ±
standard deviation from n=3 replicates.
as §1

[7] = target: T2, BTK; experiment: BTK-GFP degradation by flow cytometry in TMD8 BTK-GFP/mCh cells; type: cell-based; design: performed with full-length BTK and endogenous DCAF1; expressed in transfected cells; host or cells: TMD8 cells, lentiviral, blasticidin-selected (TMD8 BTK-GFP/mCh); conditions: TMD8 BTK-GFP/mCh, 24 h; read-out: DC50 BTK-Degradation
Method: The bicistronic pLenti6 BTK-GFP-chysel-mCHERRY expression vector was cloned as described[92] using Gateway cloning with a pENTR-BTK plasmid lacking a STOP codon. TMD8 cells were then infected with lentiviral particles from this vector as described above and stably transfected cells were selected with blasticidin at a concentration of 10 μg/mL referred to as TMD8 BTK-GFP/mCh cells.
(§3) For flow cytometry measurements, 25,000 exponentially growing TMD8 BTK-GFP/mCh cells were plated in 100 μL of each well of a 96-well plate and grown for 24 h. Cells were then dosed with corresponding compounds and doses from 10 mM DMSO stock for 24 h, after which GFP and mCherry fluorescence was read with a Beckmann Coulter Cytoflex. For competition experiment, both compounds were added at the same time and dosed for 24 h. Cells were gated based on Forward & Side Scatter and selection for Single cells using SSC-A vs. SSC-H. Further, the population of viable cells was defined by the forward & side-scatter characteristics of DMSO-treated cells. To confirm cells outside of this population as non-viable, cells were plated and treated for 24 h, washed with PBS and stained for 30 min with two markers of early (Annexin-V) and late (LIVE/DEAD) apoptosis. Effects on viability were measured by the reduction of the percentage of cells included in this viable-population gate with increasing doses of compound tested. Degradation of BTK was calculated based on subtracting background (BG) fluorescence of parental TMD8 signal via (GFP-BG)/(mCherry-BG) of viable cells. Median ratios of three technical (different wells) replicates were used to calculate daily averages. Each compound dose–response was generated via three biological replicates (different days of experiment). Degradation curve parameters (DC50 & Abs. DC50 & max. Deg) were extracted using GraphPad Prism’s 4-parameter logistic curve fitting.

[8] = Viability by FSC/SSC gate (flow cytometry) in TMD8 BTK-GFP/mCh cells; type: cell-based, human; design: Max dose w/ Gating Viability >25%: unit: µM; conditions: human, TMD8 BTK-GFP/mCh cells, TMD8 BTK-GFP/mCh, 24 h
Method: as §3, with “To confirm cells outside of this population as non-viable, cells were plated and treated for 24 h, washed with PBS and stained for 30 min with two markers of early (Annexin-V) and late (LIVE/DEAD) apoptosis.” left out
(§4) The viability window was determined by measuring the GI50 of viability based on the percentage of cells included in the viable gate and comparing it to the DC50 of degradation. The fold-change difference describing this window is [GI50 Viability / DC50 Degradation], where values above 1 indicate a positive (lower DC50 degradation than AC50 viability) window.

[9] = system: TMD8 BTK-GFP/mCh cells; experiment: as above; type: cell-based, human; design: Max dose w/ Gating Viability >25%: unit: µM; conditions: TMD8 BTK-GFP/mCh, 24 h
Method: as §3, with “To confirm cells outside of this population as non-viable, cells were plated and treated for 24 h, washed with PBS and stained for 30 min with two markers of early (Annexin-V) and late (LIVE/DEAD) apoptosis.” left out
as §4

T2 sequence (Q06187 2-659 limits assumed): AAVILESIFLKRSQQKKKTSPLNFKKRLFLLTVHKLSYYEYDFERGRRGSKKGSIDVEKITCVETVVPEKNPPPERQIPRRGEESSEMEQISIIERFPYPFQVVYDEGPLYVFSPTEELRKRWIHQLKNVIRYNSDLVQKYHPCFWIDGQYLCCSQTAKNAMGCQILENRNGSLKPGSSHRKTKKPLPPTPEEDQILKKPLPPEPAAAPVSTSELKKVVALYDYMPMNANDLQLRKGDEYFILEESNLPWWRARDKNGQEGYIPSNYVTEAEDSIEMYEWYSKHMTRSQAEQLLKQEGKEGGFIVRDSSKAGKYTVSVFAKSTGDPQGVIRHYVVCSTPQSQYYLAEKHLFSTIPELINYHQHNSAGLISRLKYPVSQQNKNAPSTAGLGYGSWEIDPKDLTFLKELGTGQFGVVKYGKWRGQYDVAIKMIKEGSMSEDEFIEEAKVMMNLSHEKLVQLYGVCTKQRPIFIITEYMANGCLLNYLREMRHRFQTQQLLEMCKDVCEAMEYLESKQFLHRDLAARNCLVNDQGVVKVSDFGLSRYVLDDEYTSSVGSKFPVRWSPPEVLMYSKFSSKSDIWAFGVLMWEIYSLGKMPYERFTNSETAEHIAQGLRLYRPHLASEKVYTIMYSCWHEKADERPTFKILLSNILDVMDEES

COc1cc(-c2cn(C)c(=O)c3cnccc23)c(OC)cc1CN(C)C [BI-9564, reference compound]
effect of co-treatment on DBr-1 mediated BRD9 degradation [1]: fully rescue the BRD9 degradation
BRD9 protein reduction by individual binders [2]: No BRD9 protein reduction

COc1ccc(C(=O)N2CCC3(CCN(CCc4ccc(-c5cc6c(-c7cc(F)cc(NC(=O)c8ccc(C(C)(C)O)cc8F)c7C)ncnc6[nH]5)cc4)CC3)CC2)cc1N1CCC(=O)NC1=O [CBt, reference compound]
BTK degradation in TMD8 CBt sensitive (WT) vs resistant cells [3]: BTK degradation only in the WT but not in the CBt-resistant TMD8 cells

COc1cc(-c2cn(C)c(=O)c3cnccc23)cc(OC)c1CN1CCN(CCCCCOc2cc(-c3scnc3C)ccc2CNC(=O)[C@@H]2C[C@@H](O)CN2C(=O)[C@@H](NC(=O)C2(F)CC2)C(C)(C)C)CC1 [VZ185]
maximal observed degradation (BRD7), % in brackets ([4]; 2 h): 21%
DC50 ([4]; read-out: rel. DC50 (BRD7), 2 h): 0.137 µM
BRD9 levels in 768-O cells [5]: intrinsic resistance

CCN(CC)Cc1ccc(-c2cc3c(-c4cc(F)cc(NC(=O)c5ccc(C(C)(C)O)cc5F)c4C)ncnc3[nH]2)cc1 [compound 17, reference compound]
relative potency change between CBt sensitive and resistant TMD8 cells [6]: neither inhibitor showed any relative potency change
DC50 [7]: > 25 µM
GI50 at 24 h ([8]; read-out: Abs GI50): 6.82 µM
GI50 at 24 h ([8]; read-out: GI50): 6.75 µM
Max dose w/ Gating Viability >25% [9]: 5.39

C=CC(=O)N1CCC[C@@H](n2nc(-c3ccc(Oc4ccccc4)cc3)c3c(N)ncnc32)C1 [ibrutinib]
relative potency change between CBt sensitive and resistant TMD8 cells [6]: neither inhibitor showed any relative potency change
